According to US20230277490A1, “GLUTAMINE AS AN ANTICANCER THERAPY IN SOLID TUMORS” (CEDARS-SINAI MEDICAL CENTER, priority 2020, published 2023):
pIC50: −log10 of the molar value.

Columns and labels:
Mia PaCa-2 cells [1] = assay: Antitumor efficacy of L-Gln supplementation and CB-839 in vitro (FIG. 7); assay type: cell-based; details: for antitumor efficacy: single agent, Mia PaCa-2 cells in vitro
PDAC mouse models = details: in vivo; cited from earlier work
pancreatic cancer cells [2] = assay: Metabolomic mass spectrometric analysis of metabolite levels; assay type: cell-based, human
Description: We tested how elevated glutamine affects gemcitabine efficacy. […] We next tested the metabolic impact of super-physiologic glutamine concentration (40 mM) on the gemcitabine response (0.5 μM) of pancreatic cancer cells through standard metabolomic mass spectrometric analysis. The heat map in FIG. 3 illustrates the differential metabolite accumulation with glutamine and gemcitabine treatment, as single agent and in combination. There were a number of metabolic changes that were only observed with the combination treatment. […] Importantly, high glutamine administration would reduce the concentration of gemcitabine required to cause significant cancer cell death.

Mia PaCa-2 cells [3] = assay: Intracellular sodium by sodium green fluorescence intensity; assay type: cell-based; details: MIA PaCa-2 cells in vitro; L-Gln 40 mM, D-Gln high dose
PDAC cells [4] = assay type: cell-based
Text: As L-Gln supplementation enhances the efficacy of chemotherapy, we tested whether L-Gln can lower the effective dose of gemcitabine.

PDAC cells [5] = assay: Glutamine supplementation with increasing concentrations of gemcitabine in PDAC cells; assay type: cell-based
Text: The ability of L-Gln supplementation to […] intracellular nucleotide stores makes it an attractive agent to pair with gemcitabine, a standard chemotherapy used in the treatment of PDAC patients whose activity is also based on its ability to inhibit DNA synthesis.
We show herein that glutamine deprivation through glutaminase inhibition increases cancer cell survival and potentiates resistance to gemcitabine in PDAC cells.

PDAC cells [6] = assay: PDAC cell growth / cell death in vitro; assay type: cell-based; details: D-Gln high dose
[7] = test system: Pancreatic cancer cells (MIAPaCa human cell line); assay: Relative cell number / gemcitabine dose response with glutamine; assay type: cell-based; details: for pIC50: Homo sapiens, MIAPaCa cells
pancreatic cancer cells [8] = assay: Basal metabolic rate and mitochondrial proton leakage of pancreatic cancer cells; assay type: cell-based, human
pancreatic cancer cells [9] = assay: DNA damage accumulation; assay type: cell-based, human; details: combination of glutamine and gemcitabine over either single agent
[10] = at 23° C.; cited from earlier work
[11] = enteral glutamine, 47 prospective trials, over 1600 adult patients; cited from earlier work
melanoma tumor = details: dietary supplementation; cited from earlier work
[12] = combination 40 mM glutamine and 0.5 μM gemcitabine

In the case of `O=C(Cc1cccc(OC(F)(F)F)c1)Nc1ccc(CCCCc2nnc(NC(=O)Cc3ccccn3)s2)nn1` [CB-839], the antitumor efficacy (Mia PaCa-2 cells [1]) is listed as “some antitumor efficacy” and the “efficacy in PDAC mouse models” value (PDAC mouse models) is listed as “failed”.
For `NC(=O)CC[C@H](N)C(=O)O` [L-Gln, L-glutamine], the “TCA cycle metabolite levels” value (pancreatic cancer cells [2]; 40 mM L-Gln) was “did not affect the majority of TCA cycle metabolites”, the “intracellular essential and conditionally amino acids” value (pancreatic cancer cells [2]; 40 mM compared to 2 mM L-Gln, PDAC cells in vitro) was “significantly depleted” and the intracellular nucleotide stores (pancreatic cancer cells [2]; 40 mM compared to control 2 mM L-Gln) was “significantly depleted”. For the same compound, the “antitumor efficacy over time” value (Mia PaCa-2 cells [1]; 40 mM L-Gln compared to control 2 mM L-Gln) was “consistently better with antitumor efficacy”, the “antitumor activity under glutaminase inhibition” value (Mia PaCa-2 cells [1]; L-Gln together with CB-839) was “occurred independently of glutaminase inhibition with CB-839” and the antitumor efficacy (Mia PaCa-2 cells [1]) was “greater antitumor activity”. For the same compound, the intracellular sodium (Mia PaCa-2 cells [3]) was “increases intracellular sodium levels”, the “colony formation with 5-FU” value (PDAC cells [4]) was “as effective or even more effective than 5-FU at 0.1 uM” and the “colony formation with gemcitabine” value (PDAC cells [4]; 20 mM L-Gln plus gemcitabine) was “can enhance the efficacy gemcitabine”. For the same compound, the “colony formation with paclitaxel” value (PDAC cells [4]; high-dose L-Gln plus paclitaxel) was “enhances the efficacy of paclitaxel” and the “antitumor effects of gemcitabine” value (PDAC cells [5]; L-Gln 40 mM compared to 2 mM, several PDAC cell lines) was “consistently enhanced the antitumor effects of gemcitabine”.
In the case of `C[C@@H]1O[C@@H](O[C@H]2C[C@@H](O)[C@]3(CO)[C@H]4[C@H](O)C[C@]5(C)[C@@H](C6=CC(=O)OC6)CC[C@]5(O)[C@@H]4CC[C@]3(O)C2)[C@H](O)[C@H](O)[C@H]1O` [Ouabain], the intracellular sodium (Mia PaCa-2 cells [3]) was “leads to build up of intracellular sodium” and the “PDAC cell growth / cell death” value (PDAC cells [6]) was “greater PDAC cell death”.
For `Nc1ccn([C@@H]2O[C@H](CO)[C@@H](O)C2(F)F)c(=O)n1` [gemcitabine], the pIC50 ([7]; MIA PaCa-2, in the presence of 2 mM glutamine (physiologic concentration)) was 6.18, the pIC50 ([7]; MIA PaCa-2, with 40 mM glutamine (super-physiologic concentration)) was 6.75 and the basal metabolic rate (pancreatic cancer cells [8]; gemcitabine alone) was “elevated”. For the same compound, the mitochondrial proton leakage (pancreatic cancer cells [8]; gemcitabine alone) was “induced”.
In the case of `NC(=O)CC[C@H](N)C(=O)O` [glutamine], the cell death ([7]; combination of elevated concentrations of glutamine and gemcitabine compared to either alone) was “dramatic increase in cell death”, the “mitochondrial proton leakage induced by gemcitabine” value (pancreatic cancer cells [8]; additional glutamine treatment) was “reduced” and the basal metabolic rate (pancreatic cancer cells [8]; combination of 40 mM glutamine and 0.5 μM gemcitabine) was “further elevated still”. The free nucleotides (pancreatic cancer cells [2]; [12]) was “accumulation of free nucleotides”, the “vitamin C and SAM levels” value (pancreatic cancer cells [2]; [12]) was “accumulation of vitamin C and S-adenosine methionine (SAM)” and the “PDAC cell death with increasing concentrations of gemcitabine” value (PDAC cells [5]; glutamine supplementation) was “enhancement of PDAC cell death”. The “cancer cell viability with increasing concentrations of gemcitabine” value (PDAC cells [5]; glutamine supplementation in the face of glutaminase inhibition) was “decreased cancer cell viability”, the sensitivity to gemcitabine (PDAC cells [5]; glutamine supplementation, even in the face of glutaminase inhibition) was “enhances sensitivity to gemcitabine” and the DNA damage (pancreatic cancer cells [9]) was “greater DNA damage accumulation”. For the same compound, the solubility [10] was 3.6%, the tolerability [11] was “well-tolerated” and the melanoma tumor growth (melanoma tumor) was “can inhibit melanoma tumor growth”.
